One test concerns the target GDP-loaded KRAS G12D (Homo sapiens (Human), UniProt P01116, G12D). The test is described as follows: KRAS G12D (GDP) biochemical assay (TR-FRET probe displacement). The format is binding. To be noted: 2 hours. In outline:
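TR-FRET probe displacement: 1:3 DMSO serial dilutions pre-incubated 30 min with GDP-bound KRAS G12D, followed by Eu-streptavidin/probe for 2 h at room temperature (Hepes pH 7.4, NaCl, MgCl2, Tween-20 buffer). IC50 defined as concentration halving TR-FRET ratio, from sigmoidal dose-response fit.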

The next test has as its system GP2D (KRAS G12D) cells. Briefly: 2D cell viability assay (CellTiter-Glo). The format is cell-based. The note with it: GP2d, 96 h, 4 days. In outline:
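Viability was read by CellTiter-Glo after 4 days at 37 °C of 2D culture of KRAS G12D GP2D cells (1000/well, RPMI, 10% FBS) on pre-spotted threefold compound dilutions. EC50 was fitted with a sigmoidal dose-response model as the point of half-maximal luminescence loss.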

Chain of GDP-loaded KRAS G12D (P01116-2 other isoform, or with tags, fused parts or gaps G12D): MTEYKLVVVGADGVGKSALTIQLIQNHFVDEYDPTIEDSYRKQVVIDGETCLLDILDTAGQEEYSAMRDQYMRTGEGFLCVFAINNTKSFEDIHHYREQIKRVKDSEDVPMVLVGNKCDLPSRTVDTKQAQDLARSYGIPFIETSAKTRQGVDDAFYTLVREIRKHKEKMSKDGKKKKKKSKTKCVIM

In turn, `C#Cc1c(F)ccc2cccc(-c3nc4c5c(nc(OC[C@@]67CCCN6C[C@H](F)C7)nc5c3F)N3C[C@H]5CC[C@H](N5)[C@@H]3[C@@H](CC)C4)c12` [Example 91, (5S,5aS,6S,9R)-5-ethyl-2-(8-ethynyl-7-fluoronaphthalen-1-yl)-1-fluoro-12-(((2R,7aS)-2-fluorotetrahydro-1H-pyrrolizin-7a(5H)-yl)methoxy)-4,5,5a,6,7,8,9,10-octahydro-3,10a,11,13,14-pentaaza-6,9-methanonaphtho[1,8-ab]heptalene] showed an IC50 on GDP-loaded KRAS G12D of 100 nM. Further, a half-maximal response in the test on GP2D (KRAS G12D) cells (EC50) required 1000 nM.

In turn, `C#Cc1c(F)ccc2cccc(-c3nc4c5c(nc(OC[C@@]67CCCN6C[C@H](F)C7)nc5c3F)N3C[C@H]5CC[C@H](N5)[C@H]3CC4(F)F)c12` [Example 98, (5aR,6S,9R)-2-(8-ethynyl-7-fluoronaphthalen-1-yl)-1,4,4-trifluoro-12-(((2R,7aS)-2-fluorotetrahydro-1H-pyrrolizin-7a(5H)-yl)methoxy)-4,5,5a,6,7,8,9,10-octahydro-3,10a,11,13,14-pentaaza-6,9-methanonaphtho[1,8-ab]heptalene] returned an IC50 on GDP-loaded KRAS G12D of 12.6 nM. In the test with GP2D (KRAS G12D) cells, this compound displayed an EC50 of 124 nM.

At GDP-loaded KRAS G12D, `C#Cc1c(F)ccc2cccc(-c3nc4c5c(nc(OCC6(CN7CCC[Si](C)(C)CC7)CC6)nc5c3F)N3C[C@H]5CC[C@H](N5)[C@@H]3[C@@H](C)C4)c12` [Example 100, (5S,5aS,6S,9R)-12-((1-((4,4-dimethyl-1,4-azasilepan-1-yl)methyl)cyclopropyl)methoxy)-2-(8-ethynyl-7-fluoronanhthalen-1-yl)-1-fluoro-5-methyl-4,5,5a,6,7,8,9,10-octahydro-3,10a,11,13,14-pentaaza-6,9-methanonaphtho[1,8-ab]heptalene] yielded an IC50 of 31.8 nM. For the same compound, a half-maximal effect in the test on GP2D (KRAS G12D) cells (EC50) was put at 373 nM.

The compound `C#Cc1c(F)ccc2cccc(-c3nc4c5c(nc(OCC6(CN7CCN(CC(F)(F)F)CC7)CC6)nc5c3F)N3C[C@H]5CC[C@H](N5)[C@@H]3[C@@H](C)C4)c12` [Example 101, (5S,5aS,6S,9R)-2-(8-ethynyl-7-fluoronaphthalen-1-yl)-1-fluoro-5-methyl-12-((1-((4-(2,2,2-trifluoroethyl)piperazin-1-yl)methyl)cyclopropyl)methoxy)-4,5,5a,6,7,8,9,10-octahydro-3,10a,11,13,14-pentaaza-6,9-methanonaphtho[1,8-ab]heptalene] came in with an IC50 on GDP-loaded KRAS G12D of 12.7 nM. The midpoint of the response with GP2D (KRAS G12D) cells, the EC50, lay at 175 nM.

With `Oc1cc(-c2nc3c4c(nc(OCC5(CN6CC[C@H](OC(F)(F)F)C6)CC5)nc4c2F)N2C[C@H]4CC[C@H](N4)[C@H]2CC3)c2c(OC(F)(F)F)c(F)ccc2c1` [Example 103, 6-fluoro-4-((5aR,6S,9R)-1-fluoro-12-((1-(((S)-3-(trifluoromethoxy)pyrrolidin-1-yl)methyl)cyclopropyl)methoxy)-4,5,5a,6,7,8,9,10-octahydro-3,10a,11,13,14-pentaaza-6,9-methanonaphtho[1,8-ab]heptalen-2-yl)-5-(trifluoromethoxy)naphthalen-2-ol], at GDP-loaded KRAS G12D, the IC50 came out at 5.3 nM. The same compound yielded an EC50 in the test on GP2D (KRAS G12D) cells of 62.6 nM.

Turning to `C#Cc1c(F)ccc2cccc(-c3nc4c5c(nc(OC[C@@]67CCCN6[C@H](COc6cccc(S(F)(F)(F)(F)F)c6)CC7)nc5c3F)N3C[C@H]5CC[C@H](N5)[C@@H]3[C@@H](C)C4)c12` [Example 105, (5S,5aS,6S,9R)-2-(8-ethynyl-7-fluoronaphthalen-1-yl)-1-fluoro-5-methyl-12-(((3S,7aS)-3-((3-(pentafluoro-λ^6-sulfaneyl)phenoxy)methyl)tetrahydro-1H-pyrrolizin-7a(5H)-yl)methoxy)-4,5,5a,6,7,8,9,10-octahydro-3,10a,11,13,14-pentaaza-6,9-methanonaphtho[1,8-ab]heptalene], the IC50 on GDP-loaded KRAS G12D was found to be 5.3 nM. For the same compound, a half-maximal effect in the test with GP2D (KRAS G12D) cells (EC50) was put at 435 nM.

On to `C#Cc1c(F)ccc2cccc(-c3nc4c5c(nc(OCC6(CN7CCC(OC(F)(F)F)CC7)CC6)nc5c3F)N3C[C@H]5CC[C@H](N5)[C@H]3CC4)c12` [Example 107, (5aR,6S,9R)-2-(8-ethynyl-7-fluoronaphthalen-1-yl)-1-fluoro-12-((1-((4-(trifluoromethoxy)piperidin-1-yl)methyl)cyclopropyl)methoxy)-4,5,5a,6,7,8,9,10-octahydro-3,10a,11,13,14-pentaaza-6,9-methanonaphtho[1,8-ab]heptalene], for which the IC50 on GDP-loaded KRAS G12D was 7.2 nM. Further, the EC50 in the test with GP2D (KRAS G12D) cells worked out at 460 nM.

With `C#Cc1c(F)ccc2cccc(-c3nc4c5c(nc(OC[C@@]67CCCN6[C@H](COc6cccc(S(F)(F)(F)(F)F)c6)CC7)nc5c3F)N3C[C@H]5CC[C@H](N5)[C@H]3CC4)c12` [Example 108, (5aR,6S,9R)-2-(8-ethynyl-7-fluoronaphthalen-1-yl)-1-fluoro-12-(((3S,7aS)-3-((3-(pentafluoro-λ^6-sulfaneyl)phenoxy)methyl)tetrahydro-1H-pyrrolizin-7a(5H)-yl)methoxy)-4,5,5a,6,7,8,9,10-octahydro-3,10a,11,13,14-pentaaza-6,9-methanonaphtho[1,8-ab]heptalene], the IC50 at GDP-loaded KRAS G12D was 1.5 nM. In the test with GP2D (KRAS G12D) cells, this compound came in with an EC50 of 450 nM.

Consider `C#Cc1c(F)ccc2cccc(-c3nc4c5c(nc(OC[C@]67CCCN6CC(OC(C(F)(F)F)(C(F)(F)F)C(F)(F)F)C7)nc5c3F)N3C[C@H]5CC[C@H](N5)[C@H]3CC4)c12` (stereo partly drawn) [Example 114, (5aR,6S,9R)-2-(8-ethynyl-7-fluoronaphthalen-1-yl)-1-fluoro-12-((trans-2-((1,1,1,3,3,3-hexafluoro-2-(trifluoromethyl)propan-2-yl)oxy)tetrahydro-1H-pyrrolizin-7a(5H)-yl)methoxy)-4,5,5a,6,7,8,9,1O-octahydro-3,10a,11,13,14-pentaaza-6,9-methanonaphtho[1,8-ab]heptalene], for which the IC50 on GDP-loaded KRAS G12D was 125 nM. Moreover, the concentration for a half-maximal effect (EC50) in the test with GP2D (KRAS G12D) cells came out at 1000 nM.

In the case of `C#Cc1c(F)ccc2cccc(-c3nc4c5c(nc(OC[C@@]67CCCN6[C@H](COC(C6CC6)C(F)(F)F)CC7)nc5c3F)N3C[C@H]5CC[C@H](N5)[C@H]3CCC4)c12` (stereo partly drawn) [Example 117, (6aR,7S,10R)-13-(((3S,7aS)-3-((1-cyclopropyl-2,2,2-trifluoroethoxy)methyl)tetrahydro-1H-pyrrolizin-7a(5H)-yl)methoxy)-2-(8-ethynyl-7-fluoronaphthalen-1-yl)-1-fluoro-5,6,6a,7,8,9,10,11-octahydro-4H-3,11a,12,14,15-pentaaza-7,10-methanocyclohepta[4,5]cycloocta[1,2,3-de]naphthalene], the IC50 on GDP-loaded KRAS G12D was found to be 0.1 nM. The compound further displayed a 50% effective concentration (EC50) with GP2D (KRAS G12D) cells of 8.5 nM.

On to `C#Cc1c(F)ccc2cccc(-c3nc4c5c(nc(OC[C@@]67CCCN6[C@H](COc6cccc(S(F)(F)(F)(F)F)c6)CC7)nc5c3F)N3C[C@H]5CC[C@H](N5)[C@H]3CCC4)c12` [Example 118, (6aR,7S,10R)-2-(8-ethynyl-7-fluoronaphthalen-1-yl)-1-fluoro-13-(((3S,7aS)-3-((3-(pentafluoro-λ^6-sulfaneyl)phenoxy)methyl)tetrahydro-1H-pyrrolizin-7a(5H)-yl)methoxy)-5,6,6a,7,8,9,10,11-octahydro-4H-3,11a,12,14,15-pentaaza-7,10-methanocyclohepta[4,5]cycloocta[1,2,3-de]naphthalene], for which the IC50 on GDP-loaded KRAS G12D worked out at 0.4 nM. Also, it took 72.7 nM to reach a half-maximal effect in the test with GP2D (KRAS G12D) cells (EC50).

Turning to `Fc1ccc2cccc(-c3nc4c5c(nc(OCC6(CN7CCC(OC(F)(F)F)CC7)CC6)nc5c3F)N3C[C@H]5CC[C@H](N5)[C@H]3CC4)c2c1OC(F)(F)F` [Example 120, (5aR,6S,9R)-1-fluoro-2-(7-fluoro-8-(trifluoromethoxy)naphthalen-1-yl)-12-((1-((4-(trifluoromethoxy)piperidin-1-yl)methyl)cyclopropyl)methoxy)-4,5,5a,6,7,8,9,10-octahydro-3,10a,11,13,14-pentaaza-6,9-methanonaphtho[1,8-ab]heptalene], on GDP-loaded KRAS G12D, the half-inhibitory concentration (IC50) was found to be 337 nM. In the test with GP2D (KRAS G12D) cells, this compound gave an EC50 of 1000 nM.

`C#Cc1c(F)ccc2cccc(-c3nc4c5c(nc(OC[C@@]67CCCN6C[C@@]6(CC6(F)F)C7)nc5c3F)N3C[C@H]5CC[C@H](N5)[C@H]3CC4)c12` [Example 121, (5aR,6S,9R)-12-(((1S,7a'S)-2,2-difluorodihydro-1′H,3′H-spiro[cyclopropane-1,2′-pyrrolizin]-7a′(5′H)-yl)methoxy)-2-(8-ethynyl-7-fluoronaphthalen-1-yl)-1-fluoro-4,5,5a,6,7,8,9,10-octahydro-3,10a,11,13,14-pentaaza-6,9-methanonaphtho[1,8-ab]heptalene] came in with an IC50 at GDP-loaded KRAS G12D of 0.3 nM. In the test on GP2D (KRAS G12D) cells, this compound returned an EC50 of 7 nM.

On GDP-loaded KRAS G12D, `Fc1ccc2cccc(-c3nc4c5c(nc(OCC6(CN7CC[C@H](OC(F)(F)F)C7)CC6)nc5c3F)N3C[C@H]5CC[C@H](N5)[C@H]3CC4)c2c1OC(F)(F)F` [Example 125, (5aR,6S,9R)-1-fluoro-2-(7-fluoro-8-(trifluoromethoxy)naphthalen-1-yl)-12-((1-(((S)-3-(trifluoromethoxy)pyrrolidin-1-yl)methyl)cyclopropyl)methoxy)-4,5,5a,6,7,8,9,10-octahydro-3,10a,11,13,14-pentaaza-6,9-methanonaphtho[1,8-ab]heptalene] gave an IC50 of 417 nM. In the test on GP2D (KRAS G12D) cells, this compound registered an EC50 of 1000 nM.

At GDP-loaded KRAS G12D, `C#Cc1c(F)ccc2cccc(-c3nc4c5c(nc(OCC6(CN7CC[C@H](OC(F)(F)F)C7)CC6)nc5c3F)N3C[C@H]5CC[C@H](N5)[C@H]3CCC4)c12` [Example 126, (6aR,7S,10R)-2-(8-ethynyl-7-fluoronaphthalen-1-yl)-1-fluoro-13-((1-(((S)-3-(trifluoromethoxy)pyrrolidin-1-yl)methyl)cyclopropyl)methoxy)-5,6,6a,7,8,9,10,11-octahydro-4H-3,11a,12,14,15-pentaaza-7,10-methanocyclohepta[4,5]cycloocta[1,2,3-de]naphthalene] gave an IC50 of 2 nM. For the same compound, the EC50 in the test with GP2D (KRAS G12D) cells turned out to be 94.4 nM.

For the origin of these results see patent publication US20230339981A1, “KRAS G12D MODULATING COMPOUNDS” (priority 2022, published 2023).
